Laboratory results published in US6576622B1, “Drug combination for the treatment of viral diseases” (University of Medicine & Dentistry of New Jersey, priority 1995, dated 2003).

What was measured:
HIV-gpt [1] = assay: HIV-gpt colony formation after infection of HeLa-T4 cells in the presence of antiretroviral agents; type: cell-based; conditions: HeLa-T4; plasmid derived HIV-gpt (COS cells); AZT 10 μM, DDI 50 μM, D4T 50 μM; no drug control 8800
HIV-LacZ = type: cell-based; conditions: d4T at 50 μM
HIV-gpt [2] = assay: HIV-gpt colony formation in the presence of D4T; type: cell-based; conditions: for Frequency: with D4T
Protocol: (§1) Production of recombinant HIV-gpt has been described elsewhere (26). The amphotropic cell line PA317 was transfected with the recombinant murine retrovirus pLXSN (36) and was used as the source of the recombinant MLV-neo virus. Stock preparations of HIV-1IIIB were harvested from H9 cells by the “shake off method” (13). Stock virus infectivity was determined by end-point dilution in MT-2 cells (32). Virus induced cytopathic effect was scored 7 days post-infection and the TCID50 was calculated with the Reed and Muench equation (33).
(§2) To confirm this high rate of infection in the absence of genetic drug resistance, we used several other recombinant viruses and host cells. […] A high rate of infection of Jurkat cells in the presence of d4T has also been seen.
(§3) Table 5. HIV-gpt produced in COS cells by transfection with plasmids (plasmid derived) is compared with HIV-gpt produced by, rescue from H9/HIV-gpt cell line after infection with HIV-IIIB and cells infected with MLV-neo.

MLV-neo = MLV-neo colony formation in the presence of antiviral agents; type: cell-based, Moloney Leukemia virus
Protocol: as §1, §2, §3
(§4) Table 6. Colony formation and persistent resistance after Hela-T4 cell infection with MLV-neo virus in the presence and absence of various antiviral agents.

[3] = test system: recombinant HIV, recombinant MLV, or replication-competent HIV; type: cell-based
From the text: The presence of a selectable marker gene in the recombinant HIV allowed the isolation of cells infected by the recombinant viruses in the presence of d4T. These cells were characterized by infection with both additional recombinant viruses and by replication-competent viruses.
as §4

MLV-LacZ = assay: Infection of Jurkat JE6.1 cell clones with MLV-LacZ in the presence of D4T; type: cell-based
From the text: Table 7. Infection of Jurkat JE6.1 cell clones sensitive and resistant to D4T.
** Bulk=bulk culture; R=resistant clone; C=control clone; JE6.1=parental cell line.

HIV-IIIB = HIV-IIIB infection of JE6.1 cells refractory to d4T, D4T IC50 with FUdr (RT activity); type: cell-based, HIV-1; conditions: Human immunodeficiency virus 1, IIIB, 144 h, concentration of D4T for 50% inhibition of RT activity on day 6, F = uM FUdr
Protocol: Table 8. Jurkat JE6.1 cells refractory to the antiviral activity of d4T (D4T bulk, D4TR1, D4TR3) and control JE6.1 cells were infected with HIV-IIIB in the presence of 0.001 uM d4T, 0.01 uM d4T 0.1 uM d4T, 1 uM d4T, 10 uM d4T, 100 uM d4T and 1000 uM d4T in the presence of 0.005 uM FUdr, 0.01 uM FUdr or 0.25 uM FUdr.

[4] = MTT cytotoxicity assay in R116 cells; type: cell-based; conditions: human, R116 cell line, three days, FIG. 8, read-out: ED50 (cytotoxicity)
Protocol: Three days later, drug cytotoxicity was quantitated with a standard MTT assay in which the uptake and metabolism of 3-[4,5-dimethylthiazol-2-yl]2,5-dephenyltetrazolium bromide (MTT) by cells was measured (14). The amount of formazan produced in 2 hours was determined by dissolving the product in 100% DMSO and then measuring the absorbance at 570 nm.
HeLa-T4 is the parental cell line.
Cells sensitive, parental HT4 (open circle), S1 (solid square), Spool (solid circle) and refractory, R116 (open square) were grown in the presence of various concentrations of FUdR. Three days latter, cell viability was determined by the MTT reduction method.

HIV-1 IIIB = HIV-1 IIIB infection of Jurkat JE6.1 cell populations, AZT IC50 with FUdR (RT activity); type: cell-based; conditions: in all of these studies
Protocol: HIV-1 production in infected, cultures was determined by a ^32P-based assay as described (34). RT activity was determined by […] of ^32P bound to the DE81 paper by using a Molecular Dynamics phosphorimager. The results are reported as pixel units per microliter of the reaction mixture.
In these experiments, three populations of cells were studied.

in vitro = conditions: human

Cc1cn([C@H]2C=C[C@@H](CO)O2)c(=O)[nH]c1=O [D4T, Stavudine]
Number of colonies (HIV-gpt [1]): 50
cross resistance of cell lines “persistently resistant” to AZT to other nucleoside analogs (HIV-LacZ): partial cross resistance
Frequency (HIV-gpt [2]; HIV-gpt by rescue with HIV): 1.6 × 10^3
No. of colonies with D4T (HIV-gpt [2]; HIV-gpt by rescue with HIV, without D4T 3.4 × 10^4): 53
Frequency (HIV-gpt [2]; plasmid derived HIV-gpt): 1.7 × 10^3
No. of colonies with D4T (HIV-gpt [2]; plasmid derived HIV-gpt, without D4T 4.7 × 10^4): 80
No. of colonies (MLV-neo; Hela-T4, AZT 10 uM, DDI 50 uM, DDC 10 uM, D4T 50 uM, control 9050): 63
No. of colonies with D4T (MLV-neo; without D4T 9.2 × 10^4): 101
cells infected with HIV in the presence of d4T that are readily re-infected in the presence of high concentrations of d4T [3]: ~50%
No. of persistently resistant colonies ([3]; Hela-T4, MLV-neo, AZT 10 uM, DDI 50 uM, DDC 10 uM, D4T 50 uM, resistant/tested): 23/63
isolated cells repeatedly refractory to the antiviral effects of d4T ([3]; cells infected in the presence of d4T, re-infection at high concentrations of d4T): approximately 37%
Frequency ([3]; frequency of persistently resistant colonies, Hela-T4, MLV-neo): 2.5 × 10^−3
% cells infected with MLV-LacZ in the presence of D4T relative to absence of D4T (MLV-LacZ; JE6.1 parental cell line, 50 uM D4T): − ((−), 20%)
% cells infected with MLV-LacZ in the presence of D4T relative to absence of D4T (MLV-LacZ; JE6.1 parental cell line, 100 uM D4T): − ((−), 20%)
% cells infected with MLV-LacZ in the presence of D4T relative to absence of D4T (MLV-LacZ; Jurkat Bulk (bulk culture), 50 uM D4T): ++ ((++) 41-60%)
% cells infected with MLV-LacZ in the presence of D4T relative to absence of D4T (MLV-LacZ; Jurkat Bulk (bulk culture), 100 uM D4T): + ((+) 21-40%)
% cells infected with MLV-LacZ in the presence of D4T relative to absence of D4T (MLV-LacZ; Jurkat control clone C2, 50 uM D4T): − ((−), 20%)
% cells infected with MLV-LacZ in the presence of D4T relative to absence of D4T (MLV-LacZ; Jurkat control clone C2, 100 uM D4T): − ((−), 20%)
% cells infected with MLV-LacZ in the presence of D4T relative to absence of D4T (MLV-LacZ; Jurkat control clone C23, 50 uM D4T): − ((−), 20%)
% cells infected with MLV-LacZ in the presence of D4T relative to absence of D4T (MLV-LacZ; Jurkat control clone C23, 100 uM D4T): − ((−), 20%)
% cells infected with MLV-LacZ in the presence of D4T relative to absence of D4T (MLV-LacZ; Jurkat control clone C26, 50 uM D4T): − ((−), 20%)
% cells infected with MLV-LacZ in the presence of D4T relative to absence of D4T (MLV-LacZ; Jurkat control clone C26, 100 uM D4T): − ((−), 20%)
% cells infected with MLV-LacZ in the presence of D4T relative to absence of D4T (MLV-LacZ; Jurkat control clone C27, 50 uM D4T): − ((−), 20%)
% cells infected with MLV-LacZ in the presence of D4T relative to absence of D4T (MLV-LacZ; Jurkat control clone C27, 100 uM D4T): − ((−), 20%)
% cells infected with MLV-LacZ in the presence of D4T relative to absence of D4T (MLV-LacZ; Jurkat resistant clone R1, 50 uM D4T): ++++ ((++++), 81-100%)
% cells infected with MLV-LacZ in the presence of D4T relative to absence of D4T (MLV-LacZ; Jurkat resistant clone R1, 100 uM D4T): ++++ ((++++), 81-100%)
% cells infected with MLV-LacZ in the presence of D4T relative to absence of D4T (MLV-LacZ; Jurkat resistant clone R3, 50 uM D4T): +++ ((+++), 61-80%)
% cells infected with MLV-LacZ in the presence of D4T relative to absence of D4T (MLV-LacZ; Jurkat resistant clone R3, 100 uM D4T): ++ ((++) 41-60%)
% cells infected with MLV-LacZ in the presence of D4T relative to absence of D4T (MLV-LacZ; Jurkat resistant clone R4, 50 uM D4T): − ((−), 20%)
% cells infected with MLV-LacZ in the presence of D4T relative to absence of D4T (MLV-LacZ; Jurkat resistant clone R4, 100 uM D4T): − ((−), 20%)
% cells infected with MLV-LacZ in the presence of D4T relative to absence of D4T (MLV-LacZ; Jurkat resistant clone R7, 50 uM D4T): − ((−), 20%)
% cells infected with MLV-LacZ in the presence of D4T relative to absence of D4T (MLV-LacZ; Jurkat resistant clone R7, 100 uM D4T): − ((−), 20%)
% cells infected with MLV-LacZ in the presence of D4T relative to absence of D4T (MLV-LacZ; Jurkat resistant clone R12, 50 uM D4T): ++++ ((++++), 81-100%)
% cells infected with MLV-LacZ in the presence of D4T relative to absence of D4T (MLV-LacZ; Jurkat resistant clone R12, 100 uM D4T): ++++ ((++++), 81-100%)
% cells infected with MLV-LacZ in the presence of D4T relative to absence of D4T (MLV-LacZ; Jurkat resistant clone R14, 50 uM D4T): + ((+) 21-40%)
% cells infected with MLV-LacZ in the presence of D4T relative to absence of D4T (MLV-LacZ; Jurkat resistant clone R14, 100 uM D4T): − ((−), 20%)
% cells infected with MLV-LacZ in the presence of D4T relative to absence of D4T (MLV-LacZ; Jurkat resistant clone R15, 50 uM D4T): ++++ ((++++), 81-100%)
% cells infected with MLV-LacZ in the presence of D4T relative to absence of D4T (MLV-LacZ; Jurkat resistant clone R15, 100 uM D4T): ++++ ((++++), 81-100%)
% cells infected with MLV-LacZ in the presence of D4T relative to absence of D4T (MLV-LacZ; Jurkat resistant clone R16, 50 uM D4T): + ((+) 21-40%)
% cells infected with MLV-LacZ in the presence of D4T relative to absence of D4T (MLV-LacZ; Jurkat resistant clone R16, 100 uM D4T): − ((−), 20%)
% cells infected with MLV-LacZ in the presence of D4T relative to absence of D4T (MLV-LacZ; Jurkat resistant clone R19, 50 uM D4T): − ((−), 20%)
% cells infected with MLV-LacZ in the presence of D4T relative to absence of D4T (MLV-LacZ; Jurkat resistant clone R19, 100 uM D4T): − ((−), 20%)
% cells infected with MLV-LacZ in the presence of D4T relative to absence of D4T (MLV-LacZ; Jurkat resistant clone R20, 50 uM D4T): ++++ ((++++), 81-100%)
% cells infected with MLV-LacZ in the presence of D4T relative to absence of D4T (MLV-LacZ; Jurkat resistant clone R20, 100 uM D4T): +++ ((+++), 61-80%)
% cells infected with MLV-LacZ in the presence of D4T relative to absence of D4T (MLV-LacZ; Jurkat resistant clone R21, 50 uM D4T): ++++ ((++++), 81-100%)
% cells infected with MLV-LacZ in the presence of D4T relative to absence of D4T (MLV-LacZ; Jurkat resistant clone R21, 100 uM D4T): ++++ ((++++), 81-100%)
% cells infected with MLV-LacZ in the presence of D4T relative to absence of D4T (MLV-LacZ; Jurkat resistant clone R22, 50 uM D4T): ++ ((++) 41-60%)
% cells infected with MLV-LacZ in the presence of D4T relative to absence of D4T (MLV-LacZ; Jurkat resistant clone R22, 100 uM D4T): + ((+) 21-40%)
% cells infected with MLV-LacZ in the presence of D4T relative to absence of D4T (MLV-LacZ; Jurkat resistant clone R26, 50 uM D4T): + ((+) 21-40%)
% cells infected with MLV-LacZ in the presence of D4T relative to absence of D4T (MLV-LacZ; Jurkat resistant clone R26, 100 uM D4T): − ((−), 20%)
% cells infected with MLV-LacZ in the presence of D4T relative to absence of D4T (MLV-LacZ; Jurkat resistant clone R29, 50 uM D4T): − ((−), 20%)
% cells infected with MLV-LacZ in the presence of D4T relative to absence of D4T (MLV-LacZ; Jurkat resistant clone R29, 100 uM D4T): − ((−), 20%)
% cells infected with MLV-LacZ in the presence of D4T relative to absence of D4T (MLV-LacZ; Jurkat resistant clone R33, 50 uM D4T): +++ ((+++), 61-80%)
% cells infected with MLV-LacZ in the presence of D4T relative to absence of D4T (MLV-LacZ; Jurkat resistant clone R33, 100 uM D4T): + ((+) 21-40%)
% cells infected with MLV-LacZ in the presence of D4T relative to absence of D4T (MLV-LacZ; Jurkat resistant clone R36, 50 uM D4T): ++++ ((++++), 81-100%)
% cells infected with MLV-LacZ in the presence of D4T relative to absence of D4T (MLV-LacZ; Jurkat resistant clone R36, 100 uM D4T): ++ ((++) 41-60%)
IC50 (HIV-IIIB; D4TBulk cells (refractory to d4T)): 3 µM
IC50 (HIV-IIIB; D4TR1 cells (refractory to d4T)): 74 µM
IC50 (HIV-IIIB; D4TR3 cells (refractory to d4T)): 2 µM
IC50 (HIV-IIIB; JE6.1 control cells): 0.02 µM

O=c1[nH]c(=O)n([C@H]2C[C@H](O)[C@@H](CO)O2)cc1F [FUdR, 2′-deoxy-5-fluorouridine]
EC50 at 3 days [4]: 700 nM
antiviral activity when used by itself (HIV-1 IIIB): moderate antiviral activity
EC50 at 3 days (in vitro): 7000 nM
